What was measured:
[1] = test system: anti-apoptotic protein Bcl-2; test: Western Blotting of Bcl-2 in U937 cells; format: cell-based; conditions: 10 μmol/L, 24 h
Description: (§1) The STAT3 and ERK signal pathways can regulate cyclins and apoptosis genes, and in order to verify the effects of […] and mogrol, the expression status of downstream genes of STAT3 and ERK was detected, wherein the influences of the three mogrosides and analogs thereof, i.e. Mogrol I E1, Mogrol II A2 and mogrol, on Bcl-2 and P21 proteins in the histiocytic lymphoma U937 cells, human melanoma A875 cells and leukemia cells K562 were determined, respectively.
(§2) The regulation of Bcl-2 and P21 proteins by mogrosides and analog thereof to the was detected by Western Blotting, specifically: histiocytic lymphoma U937 cells, human melanoma A875 cells and leukemia cells K562 (1×10^6 cells/well) were inoculated into a 6-well culture plate overnight, and 0 and 10 μmol/L of the mogrosides and analogs thereof were added respectively, and kept cultured for 24 h. […]
(§3) The protein concentration was measured with bovine serum albumin (BSA) as the standard. 50 μg of the total proteins were separated by polyacrylamide gel electrophoresis with 12% SDS, and electrophoretically transferred to a PVDF membrane (polyvinylidene fluoride membrane), and blocked for 1 h by 5% of skim milk (containing 0.1% of Tween 20), and then antibodies P21, Bcl-2 and β-actin were added, wherein the primary antibody was incubated at 4° C. overnight (β-actin was used as reference loading amount); the membrane was washed for 3 times with TBS-T, 5 min each time; secondary antibody marked by horseradish peroxidase (HRP) was added for incubation at room temperature for 1 h, the membrane was washed with rinse solution (TBS-T) for 3 times, 10 min each time, and then ECL was added for incubation in dark for 5 min, and subsequently, a fluorescence imaging analyzer was used for image development and scanning analysis.

[2] = test system: phosphorylated STAT3 (P-STAT3, Tyr705); test: Western Blotting of phosphorylated STAT3 in A875 cells; format: cell-based, human; conditions: melanoma A875 cells, 10 μmol/L, 24 hours
Description: The inhibition of the STAT3 and ERK signal pathways achieved by Mogroside I E1, Mogroside II A2 and mogrol was detected by Western Blotting, specifically:
Group 2: human melanoma A875 cells (1×10^6 cells/well) were inoculated into a 6-well culture plate for staying overnight, and 0 and 10 μmol/L of Mogroside I E1, Mogroside II A2 and mogrol were added respectively, and the culture was continued for 24 hours;
After the termination of the cell culture, the culture solution was removed, and the residue was washed with PBS (0.01 mol/L, pH 7.4), and then a cell lysis solution containing protease inhibitors was added at an amount of 50 μl/well, and the mixture was placed in an ice bath for lysis at 4° C. for 30 min and then centrifuged at 14000 r/min for 10 min, and then total proteins were obtained from the supernatant;
The protein concentrations were measured with bovine serum albumin (BSA) as the standard. 50 μg of the total proteins was separated by polyacrylamide gel electrophoresis with 12% […], electrophoretically transferred to a PVDF membrane (polyvinylidene fluoride membrane), and blocked for 1 h by 5% of skim milk (containing 0.1% of Tween 20), and then antibodies p-STAT3 (Tyr705) and p-Erk1/2 as well as β-actin were added, and the primary antibody was incubated at 4° C. overnight (β-actin was used as reference in loading amount); the membrane was washed for 3 times with TBS-T, 5 min each time; secondary antibody marked by horseradish peroxidase (HRP) was added for incubation at room temperature for 1 h, the membrane was washed for 3 times with a wash solution (TBS-T), 10 min each time, and then ECL was added for incubation in dark for 5 min, and subsequently, a fluorescence imaging analyzer was used for image development and scanning analysis, and the results of Western Blotting detection are shown in FIGS. 4 to 6.

[3] = test system: anti-apoptotic protein Bcl-2; test: Western Blotting of Bcl-2 in A875 cells; format: cell-based; conditions: human melanoma A875 cells, 10 μmol/L, 24 h
Description: as §1, §2, §3

[4] = test system: leukemia cells K562; test: Cell apoptosis, Annexin V-FITC/PI, flow cytometer; format: cell-based, human; conditions: leukemia cells K562, 10 μmol/L, 24 h
Description: (§4) Lymphoma U937 cells, human melanoma A875 cells and leukemia cells K562 in logarithmic growth phase were selected, and after the respective culture with 0 and 10 μmol/L of the mogrosides and analogs thereof (i.e. Mogroside I E1, Mogroside II A2 and mogrol) for 24 h, cells were collected and washed twice with 200 μl of cold PBS, and then the cells were collected again; 100 μl of binding buffer was added for re-suspending the cells, and after the addition of 2 μl of Annexin V-FITC and well mixing, the resulting mixture was placed in dark at room temperature for 10 min, and then 5 μl of propidium iodide (PI) was added and then well mixed; the mixture was placed in dark at room temperature for 10 min, and detected by flow cytometer, and the results are shown in FIGS. 13-15.

[5] = test system: human melanoma A875 cells; test: Cell apoptosis, Annexin V-FITC/PI, flow cytometer; format: cell-based; conditions: 10 μmol/L, 24 h
Description: as §4, with “Mogroside” for “Lymphoma U937 cells, human melanoma A875 cells and leukemia cells K562 in logarithmic growth phase were selected, and after the respective culture with 0 and 10 μmol/L of the mogrosides and analogs thereof (i.e. Mogroside”

[6] = test system: human melanoma A875 cells; test: MTT colorimetric experiment, cell growth inhibition; format: cell-based; conditions: melanoma A875 cells, 0.1, 1, 10, 100, 200 and 250 μmol/L, MTT after 24 h
Description: (§5) MTT colorimetric experiments were performed after 24 h, respectively: prior to the finish of each experiment, 15 μl of MTT solution in a concentration of 5 mg/ml was added to each well, and the culture was continued in dark at 37° C. for 4 h, then 150 μl of DMSO was added to each well and oscillating in a shaker for 10 min, and then the residue was placed in a microplate reader to detect the optical density OD) at 490 nm, and the inhibition rate was calculated according to the following formula: cell growth inhibition rate (control group OD490—test group OD490)/control group OD490×100%.

[7] = test system: lymphoma U937 cells; test: as above; format: cell-based; conditions: U937 cells, 0.1, 1, 10, 100, 200 and 250 μmol/L, MTT after 24 h
Description: as §5

[8] = test system: cycle regulatory protein P21; test: Western Blotting of P21 in K562 cells; format: cell-based, human; conditions: leukemia cells K562, 10 μmol/L, 24 h
Description: as §1, §2, §3

[9] = test system: leukemia cells K562; test: MTT colorimetric experiment, cell growth inhibition; format: cell-based, human; conditions: leukemia cells K562, 0.1, 1, 10, 100, 200 and 250 μmol/L, MTT after 24 h
Description: as §5

[10] = test system: lymphoma U937 cells; test: Cell apoptosis, Annexin V-FITC/PI, flow cytometer; format: cell-based; conditions: 10 μmol/L, 24 h
Description: as §4

Compound: C[C@H](CC[C@@H](O)C(C)(C)O)[C@H]1CC[C@@]2(C)[C@@H]3CC=C4[C@@H](CC[C@H](O)C4(C)C)[C@]3(C)[C@H](O)C[C@]12C [mogrol]
- expression of anti-apoptotic protein Bcl-2 [1]: significantly down-regulated
- expression level of phosphorylated STAT3 (P-STAT3) [2]: significantly decreased
- expression of anti-apoptotic protein Bcl-2 [3]: significantly down-regulated
- cell apoptosis [4]: induce the apoptosis
- cell apoptosis [5]: induce the apoptosis
- cell growth inhibition rate [6]: inhibitory effect on the proliferation
- cell growth inhibition rate [7]: inhibitory effect on the proliferation
- expression of cycle regulatory protein P21 [8]: significantly up-regulated
- cell growth inhibition rate [9]: inhibitory effect on the proliferation
- cell apoptosis [10]: induce the apoptosis
